Test results reported in patent publication US8399462B2, “JNK modulators” (Roche Palo Alto LLC, priority 2006, dated 2013).

Row | Structure (SMILES) | melting point [°C]
1 | CCOC(=O)[C@H]1CC[C@H](Nc2nccc(-n3ncc4c(OCCCS(N)(=O)=O)cccc43)n2)CC1 [Compound 260, 4-{4-[4-(3-sulfamoyl-propoxy)-indazol-1-yl]-pyrimidin-2-ylamino}-cyclohexanecarboxylic acid ethyl ester] | 166 to 167
2 | CC(C)(O)c1cccc2c1ccn2-c1ccnc(N[C@H]2CC[C@H](N(CCO)S(C)(=O)=O)CC2)n1 [Compound 240, N-(2-hydroxyethyl)-N-(4-{4-[4-(2-hydroxy-prop-2-yl)-indol-1-yl]-pyrimidin-2-ylamino}-cyclohexyl)-methane-sulfonamide] | 214 to 215
3 | NS(=O)(=O)CCCOc1cccc2c1cnn2-c1ccnc(N[C@H]2CC[C@H](C(=O)N3CCCC3)CC2)n1 [Compound 276] | 249 to 250
4 | CC(C)(O)c1cccc2c1ccn2-c1ccnc(N[C@H]2CC[C@H](NS(=O)(=O)N3CCOCC3)CC2)n1 [Compound 259, Morpholine-4-sulfonic acid (4-{4-[4-(2-hydroxyprop-2-yl)-indol-1-yl]-pyrimidin-2-ylamino}-cyclohexyl)-amide] | > 300
5 | CN(C)S(=O)(=O)N[C@H]1CC[C@H](Nc2nccc(-n3ccc4c(C5(O)CCOCC5)cccc43)n2)CC1 [Compound 182, N-(4-{4-[4-(4-hydroxy-tetrahydropyran-4-yl)-indol-1-yl]-pyrimidin-2-ylamino}-cyclohexyl)-(N′,N′-dimethylamino)-sulfonamide] | > 300
6 | COc1cccc2c1cnn2-c1ccnc(N[C@H]2CC[C@H](NS(C)(=O)=O)CC2)n1 [Compound 126, N-{4-[4-(4-methoxy-indazol-1-yl)-pyrimidin-2-ylamino]-cyclohexyl}-methanesulfonamide] | 291.5 to 292.5
7 | CC(=O)N[C@H]1CC[C@H](Nc2nccc(-n3ccc4c(COCCS(C)(=O)=O)cccc43)n2)CC1 [Compound 139, N-(4-{4-[4-(2-methane-sulfonyl-ethoxymethyl)-indol-1-yl]-pyrimidin-2-ylamino}-cyclohexyl)-acetamide] | 208.5 to 209.7
8 | CC(=O)N[C@H]1CC[C@H](Nc2nccc(-n3ccc4c(C(C)(C)O)cccc43)n2)CC1 [Compound 109, N-(4-{4-[4-(1-hydroxy-1-methylethyl)-indol-1-yl]-pyrimidin-2-yl-amino}-cyclohexyl)-acetamide] | 172 to 173.6
9 | OCCOc1cccc2c1cnn2-c1ccnc(N[C@H]2CC[C@H](O)CC2)n1 [Compound 90, 4-{4-[4-(2-hydroxy-ethoxy)-indazol-1-yl]-pyrimidin-2-ylamino}-cyclohexanol] | 208.2 to 210.2
10 | CS(=O)(=O)N[C@H]1CC[C@H](Nc2nccc(-n3ncc4ccccc43)n2)CC1 [Example 12, trans-N-[4-(4-Indazol-1-ylpyrimidin-2-ylamino)-cyclohexyl]-methanesulfonamide] | 269.6 to 270.4
11 | C[S+]([O-])CCCOc1cccc2c1ccn2-c1ccnc(N[C@H]2CC[C@H](C(C)(C)O)CC2)n1 (some centres unmarked) [Compound 211, 2-(4-{4-[4-(3-methane-sulfinyl-propoxy)-indol-1-yl]-pyrimidin-2-ylamino}-cyclohexyl)-propan-2-ol] | 190.5 to 191
12 | CC(O)c1cccc2c1ccn2-c1ccnc(N[C@H]2CC[C@H](NS(=O)(=O)N(C)C)CC2)n1 (some centres unmarked) [Compound 137, N-(N′,N′-dimethylsulfonamido) N-{4-[4-(1-hydroxyethyl)-indol-1-yl-pyrimidin-2-yl-amino]-cyclohexyl} amine] | > 300
13 | O=C([C@H]1CC[C@H](Nc2nccc(-n3ncc4ccccc43)n2)CC1)N1CCOCC1 [Example 6, trans-[4-(4-Indazol-1-yl-pyrimidin-2-ylamino)-cyclohexyl]-morpholin-4-yl-methanone] | 191 to 192
14 | CN(C)S(=O)(=O)N[C@H]1CC[C@H](Nc2nccc(-n3ncc4c(OCCCO)cccc43)n2)CC1 [Compound 145, N-(N′,N′-dimethylsulfonamido) N-(4-{4-[4-(3-hydroxy-propoxy)-indazol-1-yl]-pyrimidin-2-ylamino}-cyclohexyl) amine] | 248 to 250
15 | CS(=O)(=O)CCCOc1cccc2c1cnn2-c1ccnc(N[C@H]2CC[C@H](C(=O)N3CCCC3)CC2)n1 [Compound 155, (4-{4-[4-(3-methane-sulfonyl-propoxy)-indazol-1-yl]-pyrimidin-2-ylamino}-cyclohexyl)-pyrrolidin-1-ylmethanone] | 183.4 to 184.5
16 | O=C([C@H]1CC[C@H](Nc2nccc(-n3ncc4c(OC[C@@H](O)CO)cccc43)n2)CC1)N1CCCC1 (stereo in doubt) [Compound 153, (4-{4-[4-(2,3-dihydroxy-propoxy)-indazol-1-yl]-pyrimidin-2ylamino}-cyclohexyl)-pyrrolidin-1-ylmethanone] | 166 to 167

Row | Structure (SMILES) | melting point [°C]
17 | CS(=O)(=O)N[C@H]1CC[C@H](Nc2nccc(-n3ccc4c(OCC5CCN(C(=O)OCc6ccccc6)CC5)cccc43)n2)CC1 [Compound 195, 4-{1-[2-(4-methane-sulfonylamino-cyclo-hexylamino)-pyrimidin-4-yl]-1H-indol-4-yloxymethyl}-piperidine-1-carboxylic acid benzyl ester] | 179 to 180
18 | CS(=O)(=O)Nc1cccc2c1ccn2-c1ccnc(N[C@H]2CC[C@H](O)CC2)n1 [Compound 97, N-{1-[2-(4-hydroxy-cyclohexylamino)-pyrimidin-4-yl]-1H-indol-4-yl}-N-methane-sulfonamide] | 240.2 to 240.8
19 | CC(=O)N[C@H]1CC[C@H](Nc2nccc(-n3ncc4c(OC[C@@H]5COC(C)(C)O5)cccc43)n2)CC1 (stereo in doubt) [Compound 131, N-(4-{4-[4-(2,2-di-methyl[1,3]dioxolan-4-ylmethoxy)-indazol-1-yl]-pyrimidin-2-yl-amino}-cyclohexyl)-acetamide] | 214.5 to 215.5
20 | N#CCCCOc1cccc2c1ccn2-c1ccnc(N[C@H]2CC[C@H](C(=O)N3CCC(O)CC3)CC2)n1 [Compound 206, 4-(1-{2-[4-(4-hydroxy-piperidin-1-carbonyl)-cyclohexylamino]-pyrimidin-4-yl}-1H-indol-4-yloxy)-butyro-nitrile] | 134 to 136
21 | CS(=O)(=O)CCCOc1cccc2c1ccn2-c1ccnc(N[C@H]2CC[C@H](C(=O)N3CCC(S(C)(=O)=O)CC3)CC2)n1 [Compound 297, (4-methanesulfonyl-piperidin-1-yl)-(4-{4-[4-(3-methanesulfonyl-propoxy)-indol-1-yl]-pyrimidin-2-ylamino}-cyclohexyl)-methanone] | 215 to 219
22 | CC(=O)N[C@H]1CC[C@H](Nc2nccc(-n3ncc4c(OCCCO)cccc43)n2)CC1 [Compound 152, N-(4-{4-[4-(3-hydroxy-propoxy)-indazol-1-yl]-pyrimidin-2ylamino}-cyclohexyl)-acetamide] | 226 to 228
23 | CS(=O)(=O)CCCOc1cccc2c1cnn2-c1ccnc(N[C@H]2CC[C@H](C(=O)N3CC[C@@H](O)C3)CC2)n1 (stereo in doubt) [Compound 216, (3-hydroxy-pyrrolidin-1-yl)-(4-{4-[4-(3-methane-sulfonyl-propoxy)-indazol-1-yl]-pyrimidin-2-ylamino}-cyclohexyl)-methanone] | 174 to 175
24 | OCc1cccc2c1ccn2-c1ccnc(N[C@H]2CC[C@H](O)CC2)n1 [Example 10, trans-4-[4-(4-Hydroxymethylindol-1-yl)-pyrimidin-2-ylamino]-cyclohexanol] | 212 to 213.3
25 | CNC1CCN(C(=O)[C@H]2CC[C@H](Nc3nccc(-n4ccc5c(OCCCS(C)(=O)=O)cccc54)n3)CC2)CC1 [Compound 293, (4-{4-[4-(3-methane-sulfonyl-propoxy)-indol-1-yl]-pyrimidin-2-ylamino}-cyclohexyl)-(4-methylamino-piperidin-1-yl)-methanone] | 187.5 to 189.1
26 | CC(C)(O)c1cccc2c1ccn2-c1ccnc(N[C@H]2CC[C@H](C(=O)N3CCCC3)CC2)n1 [Compound 116, (4-{4-[4-(1-hydroxy-1-methylethyl)-indol-1-yl]-pyrimidin-2-yl-amino}-cyclohexyl)-pyrrolidin-1-yl-methanone] | 207.8 to 209.8
27 | CN(C)C1CCN(C(=O)[C@H]2CC[C@H](Nc3nccc(-n4ccc5c(OCCCC(F)(F)F)cccc54)n3)CC2)CC1 [Compound 286, (4-dimethylamino-piperidin-1-yl)-(4-{4-[4-(4,4,4-trifluorobutoxy)-indol-1-yl]-pyrimidin-2-ylamino}-cyclohexyl)-methanone] | 179 to 180
28 | O=C([C@H]1CC[C@H](Nc2nccc(-n3ccc4c(C5(O)CCOCC5)cccc43)n2)CC1)N1CCC(O)CC1 [Compound 232, (4-hydroxy-piperidin-1-yl)-(4-{4-[4-(4-hydroxy-tetrahydro-pyran-4-yl)-indol-1-yl]-pyrimidin-2-ylamino}-cyclohexyl)-methanone] | 168 to 169
29 | CS(=O)(=O)CCCOc1cccc2c1ccn2-c1ccnc(N[C@H]2CC[C@H](N3CCCS3(=O)=O)CC2)n1 [Compound 305, [4-(1,1-dioxo-isothiazolidin-2-yl)-cyclohexyl]-{4-[4-(3-methane-sulfonyl-propoxy)-indol-1-yl]-pyrimidin-2-yl}-amine] | 164.1 to 172.5
30 | CC(C)Oc1cccc2c1cnn2-c1ccnc(N[C@H]2CC[C@H](N(C)S(C)(=O)=O)CC2)n1 [Compound 189, N-{4-[4-(4-isopropoxy-indazol-1-yl)-pyrimidin-2-ylamino]-cyclohexyl}-N-methyl-methanesulfonamide] | 222 to 223
31 | CC(C)(O)c1cccc2c1ccn2-c1ccnc(N[C@H]2CC[C@H](NS(=O)(=O)N3CCCC3)CC2)n1 [Compound 258, Pyrrolidine-1-sulfonic acid (4-{4-[4-(2-hydroxyprop-2-yl)-indol-1-yl]-pyrimidin-2-ylamino}-cyclohexyl)-amide] | 178 to 179
32 | CN([C@H]1CC[C@H](Nc2nccc(-n3ccc4c(C(C)(C)C#N)cccc43)n2)CC1)S(C)(=O)=O [Compound 173, N-(4-{4-[4-(2-cyano-prop-2-yl)-indol-1-yl]-pyrimidin-2-ylamino}-cyclohexyl)-N-methyl-methanesulfonamide] | 189 to 190
